Data on two compounds can be found in patent US12715850B2, “Low toxicity NMP substitutes and uses thereof” (Advancion Corporation, priority 2020, dated 2026).

Data set [1] is described as follows: Solubility of the product in water and mineral oil. The class given is physicochemical. How it is done:
The resulting nitro amidef was added to a 2 L Parr reactor along with 300 g methanol and 30 g of damp Raney® nickel. The reactor was purged with hydrogen. The reagents were stirred and reacted at 65° C. and 750 psig hydrogen. In a separate vessel, a blend of 400 g (2.13 mol) of nitroamide (prepared in previous example) and 431 g (5.31 mol) of formaldehyde (37% aqueous, Fisher Scientific) was prepared. The nitroamide/formaldehyde mixture was added to the reactor under stirring while maintaining 65° C. Followed by flushing with 50 g (0.62 mol) of 37% aqueous formaldehyde. The reactor contents were held at 65° C. for 2 hours followed by cooling to 25° C. The reactor was vented and the catalyst filtered off the product. After rinsing the catalyst with methanol (2×20 mL), the filtrate was concentrate under vacuum. The product was isolated and purified using vacuum distillation to provide a pale yellow liquid recovered in 75% yield from DMAA having purity >99% by GC-FID. The boiling point was determined to be 170° C. at 40 mmHg, 145° C. at 15 mmHg, and 137° C. at 10 mmHg. ^1H NMR (400 MHz, D2O): d=2.95 (s, 3H), 2.88 (s, 3H), 2.24 (m, 2H), 2.05 (s, 6H), 1.54 (m, 2H), 0.91 (s, 6H).

For data set [2] the following is noted: oral reproduction toxicity study; at doses lower than those that caused maternal toxicity; cited from earlier work.
In data set [3] the test system is animals. As to conditions: animals ingested NMP repeatedly at lower levels; cited from earlier work.
Data set [4] relates to experimental animals. The following applies: high levels over short time by inhalation, dermal exposure, and ingestion; cited from earlier work.
Data set [5] relates to animals. As to conditions: long-term oral exposures in animals; cited from earlier work.
For data set [6] the following is noted: following inhalation, oral and dermal exposure in humans and animals; cited from earlier work.

As to `CN(C)C(=O)CCC(C)(C)N(C)C` [Example 3, 4-(dimethylamino)-N,N-4-trimethylpentamide], the “solubility in mineral oil” value in data set [1] (mineral oil) is given as “soluble”. Further, the solubility in water entry in data set [1] (water) was “soluble”.

In the case of `CN1CCCC1=O` [NMP, N-methyl-2-pyrrolidone], the developmental toxicity entry in data set [2] is “decrease in fetal weight and malformations”. The adverse effects result in data set [3] was “changes in body weight, liver weight, neurotoxicity, and thymus atrophy”. In data set [4], the toxicity result is reported as “low toxicity”. For the same compound, in data set [5], the “effects of long-term oral exposures” value was “increased incidence of large kidneys, kidneys diagnosed with chronic problems, fluid in the pleural cavity and small testes”. The absorption entry in data set [6] is on record as “well absorbed”.
